Results published in ChEMBL document CHEMBL3870340, “Cytotoxic activity, apoptosis induction and structure-activity relationship of 8-OR-2-aryl-3,4-dihydroisoquinolin-2-ium salts as promising anticancer agents” (Bioorg Med Chem Lett, 2017).
Calls of active or inactive are those of the source. The rule behind the calls is not given here.

Experiments:
NB-4 [1] = assay: Induction of apoptosis in human NB4 cells assessed as viable cells at 11.5 uM after 48 hrs by annexin V/PI double staining based flow cytometry (reference value: 96.4%); assay type: functional; details: NB-4, 48 h, read-out: Activity
NB-4 [2] = assay: Induction of apoptosis in human NB4 cells assessed as early apoptotic cells at 2.30 uM after 48 hrs by annexin V/PI double staining based flow cytometry (reference value: 2.3%); assay type: functional
[3] = Cytotoxicity against primary goat fetal fibroblast assessed as decrease in cell viability after 48 hrs by MTT assay; assay type: toxicity; details: goat (Capra hircus), primary goat fetal fibroblasts
NB-4 [4] = assay: Induction of apoptosis in human NB4 cells after 48 hrs by annexin V/PI double staining based flow cytometry; assay type: functional, cell-based
NB-4 [5] = assay: Induction of apoptosis in human NB4 cells assessed as necrotic cells at 11.5 uM after 48 hrs by annexin V/PI double staining based flow cytometry (reference value: 0.6%); assay type: functional
MKN-45 [6] = assay: Induction of apoptosis in human MKN45 cells assessed as late apoptotic cells at 2.03 uM after 48 hrs by annexin V/PI double staining based flow cytometry (reference value: 0%); assay type: functional
[7] = Cytotoxicity against primary porcine fetal kidney cells assessed as decrease in cell viability after 48 hrs by MTT assay; assay type: toxicity, cell-based; details: pig (Sus scrofa)
MKN-45 [8] = assay: Induction of apoptosis in human MKN45 cells after 48 hrs by annexin V/PI double staining based flow cytometry; assay type: functional, cell-based
MKN-45 [9] = assay: Induction of apoptosis in human MKN45 cells assessed as viable cells at 10.1 uM after 48 hrs by annexin V/PI double staining based flow cytometry (reference value: 99.8%); assay type: functional; details: MKN-45, 48 h, read-out: Activity
NB-4 [10] = assay: Induction of apoptosis in human NB4 cells assessed as early apoptotic cells at 11.5 uM after 48 hrs by annexin V/PI double staining based flow cytometry (reference value: 2.3%); assay type: functional
MKN-45 [11] = assay: Induction of morphological changes in human MKN45 cells assessed as pyknosis in early apoptotic events at 0.41 uM after 48 hrs by acridine orange/ethidium bromide staining based fluorescence microscopy; assay type: functional, cell-based
MKN-45 [12] = assay: Induction of apoptosis in human MKN45 cells assessed as early apoptotic cells at 2.03 uM after 48 hrs by annexin V/PI double staining based flow cytometry (reference value: 0.1%); assay type: functional
[13] = Cytotoxicity against human MKN45 cells assessed as decrease in cell viability after 48 hrs by MTT assay; assay type: functional, cell-based; details: MKN-45, 48 h
MKN-45 [14] = assay: Induction of apoptosis in human MKN45 cells after 48 hrs by acridine orange/ethidium bromide staining based fluorescence microscopy; assay type: functional, cell-based
NB-4 [15] = assay: Induction of morphological changes in human NB4 cells assessed as apoptotic features at 0.46 to 11.5 uM after 48 hrs by acridine orange/ethidium bromide staining based fluorescence microscopy; assay type: functional, cell-based
MKN-45 [16] = assay: Induction of apoptosis in human MKN45 cells assessed as necrotic cells at 2.03 uM after 48 hrs by annexin V/PI double staining based flow cytometry (reference value: 0.1%); assay type: functional
NB-4 [17] = assay: Induction of apoptosis in human NB4 cells assessed as viable cells at 2.30 uM after 48 hrs by annexin V/PI double staining based flow cytometry (reference value: 96.4%); assay type: functional; details: NB-4, 48 h, read-out: Activity
MKN-45 [18] = assay: Induction of morphological changes in human MKN45 cells assessed as condensation of cell nuclei and chromatins at 0.41 uM after 48 hrs by acridine orange/ethidium bromide staining based fluorescence microscopy; assay type: functional
NB-4 [19] = assay: Induction of apoptosis in human NB4 cells assessed as late apoptotic cells at 11.5 uM after 48 hrs by annexin V/PI double staining based flow cytometry (reference value: 0.7%); assay type: functional
MKN-45 [20] = assay: Induction of morphological changes in human MKN45 cells assessed as late apoptotic cells at 10.1 uM after 48 hrs by acridine orange/ethidium bromide staining based fluorescence microscopy; assay type: functional, cell-based
MKN-45 [21] = assay: Induction of morphological changes in human MKN45 cells assessed as change in cytomembrane permeability at 0.41 uM after 48 hrs by acridine orange/ethidium bromide staining based fluorescence microscopy; assay type: functional, cell-based
NB-4 [22] = assay: Induction of apoptosis in human NB4 cells assessed as necrotic cells at 2.30 uM after 48 hrs by annexin V/PI double staining based flow cytometry (reference value: 0.6%); assay type: functional
MKN-45 [23] = assay: Induction of morphological changes in human MKN45 cells assessed as apoptotic cells at 2.03 uM after 48 hrs by acridine orange/ethidium bromide staining based fluorescence microscopy; assay type: functional, cell-based
[24] = Cytotoxicity against human NB4 cells assessed as decrease in cell viability after 48 hrs by MTT assay; assay type: functional, cell-based; details: NB-4, 48 h
[25] = Antiproliferative activity against human MKN45 cells at 20 uM after 48 hrs by MTT assay relative to control; assay type: functional; details: MKN-45, 48 h, read-out: GI
MKN-45 [26] = assay: Induction of apoptosis in human MKN45 cells assessed as late apoptotic cells at 10.1 uM after 48 hrs by annexin V/PI double staining based flow cytometry (reference value: 0%); assay type: functional
MKN-45 [27] = assay: Induction of apoptosis in human MKN45 cells assessed as necrotic cells at 10.1 uM after 48 hrs by annexin V/PI double staining based flow cytometry (reference value: 0.1%); assay type: functional
NB-4 [28] = assay: Induction of apoptosis in human NB4 cells assessed as late apoptotic cells at 2.30 uM after 48 hrs by annexin V/PI double staining based flow cytometry (reference value: 0.7%); assay type: functional
MKN-45 [29] = assay: Induction of apoptosis in human MKN45 cells assessed as early apoptotic cells at 10.1 uM after 48 hrs by annexin V/PI double staining based flow cytometry (reference value: 0.1%); assay type: functional
[30] = Antiproliferative activity against human NB4 cells at 5 uM after 48 hrs by MTT assay relative to control; assay type: functional; details: NB-4, 48 h, read-out: GI
MKN-45 [31] = assay: Induction of morphological changes in human MKN45 cells assessed as cell shrinkage at 0.41 uM after 48 hrs by acridine orange/ethidium bromide staining based fluorescence microscopy; assay type: functional
MKN-45 [32] = assay: Induction of apoptosis in human MKN45 cells assessed as viable cells at 2.03 uM after 48 hrs by annexin V/PI double staining based flow cytometry (reference value: 99.8%); assay type: functional; details: MKN-45, 48 h, read-out: Activity

Compound `COc1cccc2c1C=[N+](c1ccccc1I)CC2.[Br-]` has a viability at 11.5 µM (NB-4 [1]) of 77.9%, an Activity (NB-4 [2]) of 7.7% and an IC50 at 48 h [3] of 3.51 µM. The Activity (NB-4 [4]) was “Dose-dependent effect”, the Activity (NB-4 [5]) was 0.3% and the Activity (MKN-45 [6]) was 4.6%. The IC50 at 48 h [7] was 2.41 µM, the Activity (MKN-45 [8]) was “Dose-dependent effect” and the viability at 10.1 µM (MKN-45 [9]) was 46%. For the same compound, the Activity (NB-4 [10]) was 14.7%, the Activity (MKN-45 [11]) was “Active” and the Activity (MKN-45 [12]) was 12.8%. For the same compound, the IC50 [13] was 2.03 µM, the Activity (MKN-45 [14]) was “Dose-dependent effect” and the Activity (NB-4 [15]) was “Active”. For the same compound, the Activity (MKN-45 [16]) was 0.4%, the viability at 2.3 µM (NB-4 [17]) was 90.1% and the Activity (MKN-45 [18]) was “Active”. For the same compound, the Activity (NB-4 [19]) was 7.1%, the Activity (MKN-45 [20]) was “Active” and the Activity (MKN-45 [21]) was “Active”. For the same compound, the Activity (NB-4 [22]) was 0%, the Activity (MKN-45 [23]) was “Active” and the IC50 [24] was 2.3 µM. The inhibition of growth at 20 µM [25] was 90.9%, the Activity (MKN-45 [26]) was 32% and the Activity (MKN-45 [27]) was 1.9%. The Activity (NB-4 [28]) was 2.2%, the Activity (MKN-45 [29]) was 20.1% and the inhibition of growth at 5 µM [30] was 49.7%. The Activity (MKN-45 [31]) was “Active” and the viability at 2.03 µM (MKN-45 [32]) was 82.2%.
